Read-outs that look alike come from different tables or passages of the source.

Test [1] concerns the target human full-length autophosphorylated recombinant HPK1 (Homo sapiens (Human), UniProt Q92918). The test can be described thus: HPK1 biochemical enzyme assay (chelation-enhanced fluorescence, CHEF). As to conditions: 0.5 nM HPK1, 45 μM ATP, Morrison fit. The method, then: HPK1 Biochemical Enzyme Assay
HPK1 enzyme inhibition was measured by using the fluorescence-based chelation-enhanced fluorescence (CHEF) method (1), and by using a proprietary fluorescent peptide substrate, in which a cysteine residue is alkylated with a sulfonamido-oxine-based derivative to afford an amino acid termed C-Sox (CSx). […] Initial reaction velocities were determined by following the peptide fluorescence (λex=360 nm, λem=500 nm) at 30° C. for 15 min in a Tecan M1000 plate reader (Tecan Group Ltd., Mannedorf, Zurich, Switzerland).
Production of Autophosphorylated Full-Length Recombinant HPK1
The DNA sequence encoding full-length human HPK1 (Genbank NM_001042600.2) was synthesized at GenScript and contained a limited number of silent base changes to eliminate certain restriction endonuclease enzyme recognition sites, and fused to a DNA sequence encoding a Tobacco Etch Virus (TEV)-cleavable N-terminal polyhistidine purification tag. A recombinant baculovirus was prepared by using the Bac-to-Bac method (InVitrogen) and was used to infect 9 L of Sf21 insect cells. All purification steps were carried out at 4° C. Cells containing recombinant HPK1 were lysed in 50 mM HEPES-NaOH, pH 7.5, 250 mM NaCl, 1 mM tris(2-carboxyethyl)phosphine (TCEP), 10 μM leupeptin (Sigma), 10 μM E-64 (Sigma), and one ‘EDTA-free’ protease inhibitor tablet (Roche) per 75 mL buffer, centrifuged at 15,000×g for 1 h and the supernatant passed over 5 mL of ProBond IMAC resin (InVitrogen). After washing, HPK1 was eluted with 12.5 mL of 50 mM HEPES-NaOH, pH 7.5, 400 mM NaCl, 250 mM imidazole-HCl pH 7.5, 1 mM TCEP, 2 μM leupeptin, and 2 μM E-64. The eluted HPK1 was dialyzed overnight against 0.8 L of 50 mM HEPES-NaOH, pH 7.5, 400 mM NaCl, 20 mM imidazole-HCl pH 7.5, 1 mM TCEP, 2 μM leupeptin, 2 μM E-64, 2 mM ATP-NaOH pH 7.3, 5 mM MgCl2 and 1 mg TEV (this step simultaneously allows for reduction of the imidazole concentration in preparation for the subsequent reverse IMAC chromatography step, removal of the polyhistidine purification tag by TEV protease, and autophosphorylation of HPK1 in the presence of MgATP). The de-tagged and autophosphorylated HPK1 was adjusted to 40 mM imidazole-HCl, pH 7.5, and passed through a 10 mL column of ProBond resin similarly equilibrated. […] The peak fractions containing HPK1 were pooled and concentrated to approximately 2.5 mL by using a centrifugal concentrator (Millipore). The concentrated HPK1 was adjusted to 20% (v/v) glycerol by the addition of 50% (v/v) glycerol, resulting in a final formulation of 25 mM HEPES-NaOH pH 7.5, 250 mM NaCl, 0.25 mM TCEP and 20% (v/v) glycerol. […] Aliquots of the enzyme were flash frozen in liquid nitrogen and stored at −80° C. The final product contains a glycine-serine extension at the N-terminus of the full-length protein, as a result of the cloning strategy.

Test [2] concerns Phospho-SLP-76 (Ser376) in Jurkat cells. Nature of the test: Phospho-SLP-76 (Ser376) HTRF assay in anti-CD3 stimulated Jurkat cells. The class given is cell-based. Particulars: 30 min pre-treatment, anti-CD3 stimulation 15 min, read-out: pSLP76 IC50. On the procedure: Cell Based Assays Phospho-SLP-76 (Ser376) Homogeneous Time Resolved Fluorescence (HTRF) Assay
Jurkat cells were seeded at 90,000 cells/well in 90 uL of RPMI1640 growth medium containing 10% FBS and incubated at 37° C. with 5% CO2 overnight. The following day, compounds were serially diluted from a 10 mM top dose for an 11-point 3-fold dilution curve in DMSO. Compounds were intermediately diluted 1:100 into growth media prior to diluting 1:10 on cells for final concentration 10 μM to 0.1 nM in 0.1% DMSO. After 30 min pre-treatment with compounds, the cells were stimulated using 200 μg/mL of F(ab)2 complexed anti-CD3 (clone UCTH1) for 15 min at 37° C. with 5% CO2. Stimulation was stopped with ice cold PBS and cells were harvested by centrifugation before lysis in Cisbio lysis buffer (Cisbio, Bedford, Mass.). Lysates were transferred to white, low-volume plates containing anti-phospho-SLP-76-Cryptate plus anti-phospho-SLP-76-d2 HTRF antibodies and incubated overnight at room temperature protected from light according to the manufacturer's protocol (Cisbio, Bedford, Mass.). HTRF was measured on a Perkin Elmer Envision and IC50 values were calculated by concentration-response curve fitting utilizing four-parameter nonlinear regression analyses.
Background: In TR-FRET formats the signal depends on donor and acceptor labels being close together.

human full-length autophosphorylated recombinant HPK1, sequence (Q92918 other isoform, or with tags, fused parts or gaps): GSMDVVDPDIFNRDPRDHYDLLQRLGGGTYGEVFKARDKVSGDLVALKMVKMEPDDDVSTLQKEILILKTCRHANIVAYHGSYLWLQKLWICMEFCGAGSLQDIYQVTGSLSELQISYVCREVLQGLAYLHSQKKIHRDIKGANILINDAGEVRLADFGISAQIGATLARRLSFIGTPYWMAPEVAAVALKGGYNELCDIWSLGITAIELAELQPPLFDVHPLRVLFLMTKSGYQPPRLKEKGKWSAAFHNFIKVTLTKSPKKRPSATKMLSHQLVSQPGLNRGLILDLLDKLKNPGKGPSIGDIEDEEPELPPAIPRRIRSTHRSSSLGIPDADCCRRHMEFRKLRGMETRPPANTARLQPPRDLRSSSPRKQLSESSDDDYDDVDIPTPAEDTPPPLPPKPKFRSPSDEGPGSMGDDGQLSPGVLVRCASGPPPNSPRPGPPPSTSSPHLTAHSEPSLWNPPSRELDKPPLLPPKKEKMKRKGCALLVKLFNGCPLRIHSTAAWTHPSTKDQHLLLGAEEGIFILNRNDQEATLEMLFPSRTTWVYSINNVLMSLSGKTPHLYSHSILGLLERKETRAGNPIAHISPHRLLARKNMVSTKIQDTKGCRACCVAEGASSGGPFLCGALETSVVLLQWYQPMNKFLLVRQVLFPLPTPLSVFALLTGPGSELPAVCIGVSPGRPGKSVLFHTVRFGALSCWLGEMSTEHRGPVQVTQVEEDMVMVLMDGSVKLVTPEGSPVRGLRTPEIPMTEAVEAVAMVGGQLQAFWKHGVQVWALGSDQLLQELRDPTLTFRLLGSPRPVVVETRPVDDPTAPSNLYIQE

In general, Ki refers to the dissociation constant of the complex between target and ligand, obtained from inhibition or displacement. Broadly, the IC50 is the point on the concentration scale where inhibition reaches its midpoint. In the case of `CCN(C)c1cc2c(c([C@H](C)N)n1)CN(c1cccc(-c3nnc(C)n3CC)n1)C2=O` (single isomer, unassigned) [Example 128, 4-[(1ξ)-1-aminoethyl]-6-[ethyl(methyl)amino]-2-[6-(4-ethyl-5-methyl-4H-1,2,4-triazol-3-yl)pyridin-2-yl]-2,3-dihydro-1H-pyrrolo[3,4-c]pyridin-1-one], the Ki in test [1] was found to be 1.03 nM. The IC50 in test [2] (Homo sapiens, Jurkat) worked out at 194 nM.
The like results for `C[C@H](N)c1nc(N2CCC[C@H]2C)cc2c1CN(c1cccc(-c3nnc4n3[C@H](C)CC4)n1)C2=O` (single isomer, unassigned) [Example 27] were, in that order, under 0.05 nM and 56 nM.
Taken in the same sequence, the figures for `CCCn1c(C)nnc1-c1cccc(N2Cc3c(cc(N(C)C(C)C)nc3[C@H](C)N)C2=O)n1` (single isomer, unassigned) [Example 149, 4-[(1ξ)-1-aminoethyl]-6-[methyl (propan-2-yl)amino]-2-[6-(5-methyl-4-propyl-4H-1,2,4-triazol-3-yl)pyridin-2-yl]-2,3-dihydro-1H-pyrrolo[3,4-c]pyridin-1-one] were 0.6 nM and 171 nM.
In the case of `CC[C@@H](N)c1nc(N(C)C(C)C)cc2c1CN(c1cccc(-c3nnc4n3[C@@H](CO)CC4)n1)C2=O` [Example 20, 4-[(1R)-1-aminopropyl]-2-{6-[(5R)-5-(hydroxy-methyl)-6,7-dihydro-5H-pyrrolo[2,1-c][1,2,4]triazol-3-yl]pyridin-2-yl}-6-[methyl(propan-2-yl)amino]-2,3-dihydro-1H-pyrrolo[3,4-c]pyridin-1-one], in test [1], the Ki is under 0.05 nM. Moreover, the IC50 in test [2] (Homo sapiens, Jurkat) stood at 23 nM.
The like results for `CC[C@@H](N)c1nc(N(C)C)cc2c1CN(c1cccc(-c3nnc4n3[C@@H](C)CC4)n1)C2=O` [Example 28, 4-[(1R)-1-aminopropyl]-6-(dimethyl-amino)-2-{6-[(5S)-5-methyl-6,7-dihydro-5H-pyrrolo[2,1-c][1,2,4]triazol-3-yl]pyridin-2-yl}-2,3-dihydro-1H-pyrrolo[3,4-c]pyridin-1-one] were, in that order, under 0.045 nM and 64 nM.
The like results for `CCn1cnnc1-c1cccc(N2Cc3c(cc(C4(C)CC4)nc3[C@@H](C)N)C2=O)n1` [Example 115, 4-[(1R)-1-aminoethyl]-2-[6-(4-ethyl-4H-1,2,4-triazol-3-yl)pyridin-2-yl]-6-(1-methylcyclo-propyl)-2,3-dihydro-1H-pyrrolo[3,4-c]pyridin-1-one] were, in that order, 0.56 nM and 216 nM.
The like results for `CCN(C)c1cc2c(c([C@@H](C)N)n1)CN(c1cccc(-c3nncn3CC)n1)C2=O` (single isomer, unassigned) [Example 129, 4-[(1ξ)-1-aminoethyl]-6-[ethyl(methyl)amino]-2-[6-(4-ethyl-4H-1,2,4-triazol-3-yl)pyridin-2-yl]-2,3-dihydro-1H-pyrrolo[3,4-c]pyridin-1-one] were, in that order, 0.28 nM and 97 nM.
Take `CC[C@@H](N)c1nc(N2CCC[C@H]2C)cc2c1CN(c1cccc(-c3nnc4n3[C@@H](CF)CC4)n1)C2=O` [Example 32, 4-[(1R)-1-aminopropyl]-2-{6-[(5R)-5-(fluoromethyl)-6,7-dihydro-5H-pyrrolo[2,1-c][1,2,4]triazol-3-yl]pyridin-2-yl}-6-[(2R)-2-methylpyrroli-din-1-yl]-2,3-dihydro-1H-pyrrolo[3,4-c]pyridin-1-one]: in test [1], the Ki stood at 0.06 nM. Also, the IC50 in test [2] (Homo sapiens, Jurkat) worked out at 46 nM.
The like results for `C[C@H]1CCc2nnc(-c3cccc(N4Cc5c(cc(N(C)C)nc5C(C)(C)N)C4=O)n3)n21` (single isomer, unassigned) [Example 22, 4-(2-aminopropan-2-yl)-6-(dimethyl-amino)-2-{6-[(5ξ)-5-methyl-6,7-dihydro-5H-pyrrolo[2,1-c][1,2,4]triazol-3-yl]pyridin-2-yl}-2,3-dihydro-1H-pyrrolo[3,4-c]pyridin-1-one] were, in that order, 0.08 nM and 133 nM.
In the case of “4-[(1ξ)-1- aminoethyl]-2- {6-[(5R)-5- (fluoromethyl)- 6,7-dihydro- 5H-pyrrolo[2,1- c][1,2,4]triazol- 3-yl]pyridin-2- yl}-6-[(2R)-2- methylpyrroli- din-1-yl]-2,3- dihydro-1H- pyrrolo[3,4- c]pyridin-1-one [Example 18]”, the inhibitory constant (Ki) in test [1] is under 0.05 nM. Further, in test [2], the IC50 stood at 42 nM.
In the case of `CCn1cnnc1-c1cccc(N2Cc3c(cc(N(C)C)nc3[C@H](C)N)C2=O)n1` (single isomer, unassigned) [Example 152, 4-[(1ξ)-1-aminoethyl]-6-(dimethyl-amino)-2-[6-(4-ethyl-4H-1,2,4-triazol-3-yl)pyridin-2-yl]-2,3-dihydro-1H-pyrrolo[3,4-c]pyridin-1-one], the Ki in test [1] came out at 1.53 nM. In test [2] (Homo sapiens, Jurkat), the half-maximal inhibitory concentration (IC50) is 191 nM.
As to `CC[C@@H](N)c1nc(N2CCC[C@H]2C)cc2c1CN(c1cccc(-c3nncn3CC)n1)C2=O` [Example 140, 4-[(1R)-1-aminopropyl]-2-[6-(4-ethyl-4H-1,2,4-triazol-3-yl)pyridin-2-yl]-6-[(2R)-2-methylpyrroli-din-1-yl]-2,3-dihydro-1H-pyrrolo[3,4-c]pyridin-1-one], the Ki in test [1] was under 0.07 nM. In addition, the IC50 in test [2] (Homo sapiens, Jurkat) came to 53 nM.
The like results for `CCCn1cnnc1-c1cccc(N2Cc3c(cc(N4CCC[C@H]4C)nc3[C@H](N)CC)C2=O)n1` [Example 144, 4-[(1R)-1-aminopropyl]-6-[(2R)-2-methylpyrroli-din-1-yl]-2-[6-(4-propyl-4H-1,2,4-triazol-3-yl)pyridin-2-yl]-2,3-dihydro-1H-pyrrolo[3,4-c]pyridin-1-one] were, in that order, 0.11 nM and 90 nM.
The like results for `CCn1cnnc1-c1cccc(N2Cc3c(cc(N4CCC[C@H]4C)nc3[C@@H](C)NC)C2=O)n1` (single isomer, unassigned) [Example 110] were, in that order, 0.09 nM and 42 nM.
With `C[C@@H]1CCCN1c1cc2c(c([C@@H](C)N)n1)CN(c1cccc(-c3nnc4n3[C@H](C)CC4)n1)C2=O` (single isomer, unassigned) [Example 25], the Ki in test [1] was under 0.05 nM. The IC50 in test [2] (Homo sapiens, Jurkat) came to 53 nM.
Taken in the same sequence, the figures for `CC[C@@H](N)c1nc(N(C)C)cc2c1CN(c1cccc(-c3nnc4n3[C@@H](CF)CC4)n1)C2=O` [Example 33, 4-[(1R)-1-aminopropyl]-6-(dimethyl-amino)-2-{6-[(5R)-5-(fluoromethyl)-6,7-dihydro-5H-pyrrolo [2,1-c][1,2,4]triazol-3-yl]pyridin-2-yl}-2,3-dihydro-1H-pyrrolo[3,4-c]pyridin-1-one] were 0.21 nM and 179 nM.
With `CC[C@@H](N)c1nc(C2(C)CC2)cc2c1CN(c1cccc(-c3nnc4n3[C@@H](CO)CC4)n1)C2=O` (single isomer, unassigned) [Example 36], the Ki in test [1] was determined as 0.074 nM. Also, the IC50 in test [2] (Homo sapiens, Jurkat) worked out at 110 nM.
Taken in the same sequence, the figures for `COC[C@@H](N)c1nc(C2(C)CC2)cc2c1CN(c1cccc(-c3nnc4n3[C@@H](CO)CC4)n1)C2=O` (single isomer, unassigned) [Example 38] were 0.18 nM and 197 nM.

The values are drawn from patent US11684616B2, “Azalactam compounds as HPK1 inhibitors” (PFIZER INC., priority 2020, dated 2023).
